Source: article PMC5218480 (PLoS ONE, 2017)

Tested on: MV-4-11 cells
Test: Gene expression microarray analysis (Affymetrix PrimeView) and GSEA
Assay type: cell-based, human
Set-up: RFU PODN (11730768_x_at) / Fold change /veh PODN (11730768_x_at) / RFU LINC00158 (11744669_a_at) / Fold change /veh LINC00158 (11744669_a_at) / RFU DUSP10 (11751237_a_at) / Fold change /veh DUSP10 (11751237_a_at) / RFU ID3 (11757404_x_at) / Fold change /veh ID3 (11757404_x_at) / RFU PLEKHG5 (11737974_s_at) / Fold change /veh PLEKHG5 (11737974_s_at) / RFU LRRC4B (11730491_at) / Fold change /veh LRRC4B (11730491_at) / RFU GIMAP4 (11747438_a_at) / Fold change /veh GIMAP4 (11747438_a_at) / RFU KRT8 (11758183_x_at) / Fold change /veh KRT8 (11758183_x_at) / RFU CNN1 (11734310_a_at) / Fold change /veh CNN1 (11734310_a_at) / RFU VPS37D (11726825_at) / Fold change /veh VPS37D (11726825_at) / RFU C10orf10 (11716522_x_at) / Fold change /veh C10orf10 (11716522_x_at) / RFU KIR2DL2 /// KIR2DL4 /// KIR2DL5A /// KIR2DL5B /// KIR2DS1 /// KIR2DS2 /// KIR2DS3 /// KIR2DS4 /// KIR3DL3 /// KIR3DL3 /// KIR3DS1 (11738374_at) / Fold change /veh KIR2DL2 /// KIR2DL4 /// KIR2DL5A /// KIR2DL5B /// KIR2DS1 /// KIR2DS2 /// KIR2DS3 /// KIR2DS4 /// KIR3DL3 /// KIR3DL3 /// KIR3DS1 (11738374_at) / RFU C1QL1 (11718748_at) / Fold change /veh C1QL1 (11718748_at) / RFU TMPRSS4 (11747572_a_at) / Fold change /veh TMPRSS4 (11747572_a_at) / RFU HAMP (11756126_x_at) / Fold change /veh HAMP (11756126_x_at) / RFU RNFT2 (11725882_a_at) / Fold change /veh RNFT2 (11725882_a_at) / RFU NR4A2 (11747474_a_at) / Fold change /veh NR4A2 (11747474_a_at) / RFU ABCC12 (11746883_a_at) / Fold change /veh ABCC12 (11746883_a_at) / RFU TMEM136 (11760407_x_at) / Fold change /veh TMEM136 (11760407_x_at) / RFU CLDN22 /// WWC2 (11732394_at) / Fold change /veh CLDN22 /// WWC2 (11732394_at) / RFU HLA-DPB1 (11760878_x_at) / Fold change /veh HLA-DPB1 (11760878_x_at) / RFU SPINT1 (11716480_a_at) / Fold change /veh SPINT1 (11716480_a_at) / RFU GAP43 (11754022_s_at) / Fold change /veh GAP43 (11754022_s_at) / RFU A4GNT (11735810_at) / Fold change /veh A4GNT (11735810_at) / RFU PRB3 (11715151_x_at) / Fold change /veh PRB3 (11715151_x_at) / RFU TUBB4B (11761932_at) / Fold change /veh TUBB4B (11761932_at) / RFU CAPN14 (11732068_a_at) / Fold change /veh CAPN14 (11732068_a_at) / RFU TMCC2 (11721928_a_at) / Fold change /veh TMCC2 (11721928_a_at) / RFU IRGQ (11745062_a_at) / Fold change /veh IRGQ (11745062_a_at) / RFU FAM174B (11720279_a_at) / Fold change /veh FAM174B (11720279_a_at) / RFU TMPRSS4 (11748680_a_at) / Fold change /veh TMPRSS4 (11748680_a_at) / RFU FAM212B (11763350_a_at) / Fold change /veh FAM212B (11763350_a_at) / RFU PLEKHG5 (11743358_a_at) / Fold change /veh PLEKHG5 (11743358_a_at) / RFU ZSCAN30 (11745921_a_at) / Fold change /veh ZSCAN30 (11745921_a_at) / RFU CMKLR1 (11741424_a_at) / Fold change /veh CMKLR1 (11741424_a_at) / RFU LOC101060620 /// MAPK8IP1 (11723275_at) / Fold change /veh LOC101060620 /// MAPK8IP1 (11723275_at) / RFU SPTSSB (11747773_x_at) / Fold change /veh SPTSSB (11747773_x_at) / RFU PRSS12 (11739890_at) / Fold change /veh PRSS12 (11739890_at) / RFU BIN1 (11741810_x_at) / Fold change /veh BIN1 (11741810_x_at) / RFU WNT11 (11732464_a_at) / Fold change /veh WNT11 (11732464_a_at) / RFU C10orf10 (11716521_a_at) / Fold change /veh C10orf10 (11716521_a_at) / RFU C5orf56 (11738089_at) / Fold change /veh C5orf56 (11738089_at) / RFU CYB561 (11721691_x_at) / Fold change /veh CYB561 (11721691_x_at) / RFU ANKRD19P (11752326_a_at) / Fold change /veh ANKRD19P (11752326_a_at) / RFU OR2T12 /// OR2T33 /// OR2T8 (11738714_s_at) / Fold change /veh OR2T12 /// OR2T33 /// OR2T8 (11738714_s_at) / RFU VCAN (11748164_a_at) / Fold change /veh VCAN (11748164_a_at) / RFU JSRP1 (11732532_at) / Fold change /veh JSRP1 (11732532_at) / RFU KRTAP10-11 (11738290_x_at) / Fold change /veh KRTAP10-11 (11738290_x_at) / RFU MYO3A (11730013_a_at) / Fold change /veh MYO3A (11730013_a_at) / RFU EBF3 (11725865_a_at) / Fold change /veh EBF3 (11725865_a_at) / RFU CAMK2N1 (11719241_x_at) / Fold change /veh CAMK2N1 (11719241_x_at) / RFU C5orf56 (11738088_a_at) / Fold change /veh C5orf56 (11738088_a_at) / RFU OLFML3 (11715873_a_at) / Fold change /veh OLFML3 (11715873_a_at) / RFU LOC100653217 /// NTM (11731650_a_at) / Fold change /veh LOC100653217 /// NTM (11731650_a_at) / RFU MAPK11 (11762145_a_at) / Fold change /veh MAPK11 (11762145_a_at) / RFU FIZ1 (11724087_x_at) / Fold change /veh FIZ1 (11724087_x_at) / RFU OASL (11726364_x_at) / Fold change /veh OASL (11726364_x_at) / RFU SOX15 (11748057_x_at) / Fold change /veh SOX15 (11748057_x_at) / RFU CD79A (11719716_a_at) / Fold change /veh CD79A (11719716_a_at) / RFU HIST1H1D (11736915_at) / Fold change /veh HIST1H1D (11736915_at) / RFU CASKIN2 (11723855_a_at) / Fold change /veh CASKIN2 (11723855_a_at) / RFU LOC730098 (11760151_x_at) / Fold change /veh LOC730098 (11760151_x_at) / RFU OR4N2 (11742367_at) / Fold change /veh OR4N2 (11742367_at) / RFU PRRT2 (11749266_a_at) / Fold change /veh PRRT2 (11749266_a_at) / RFU SNX32 (11753110_a_at) / Fold change /veh SNX32 (11753110_a_at) / RFU CDHR5 (11726645_a_at) / Fold change /veh CDHR5 (11726645_a_at) / RFU RCAN1 (11760418_a_at) / Fold change /veh RCAN1 (11760418_a_at) / RFU FAM167A (11723789_a_at) / Fold change /veh FAM167A (11723789_a_at) / RFU FAM26E (11764081_at) / Fold change /veh FAM26E (11764081_at) / RFU ISYNA1 (11749810_s_at) / Fold change /veh ISYNA1 (11749810_s_at) / RFU ACY1 (11761880_at) / Fold change /veh ACY1 (11761880_at) / RFU 11764098_at / Fold change /veh 11764098_at / RFU SAMD14 (11745864_x_at) / Fold change /veh SAMD14 (11745864_x_at) / RFU NPB (11741838_a_at) / Fold change /veh NPB (11741838_a_at) / RFU TMPRSS6 (11731388_a_at) / Fold change /veh TMPRSS6 (11731388_a_at) / RFU KRTAP10-2 (11738614_at) / Fold change /veh KRTAP10-2 (11738614_at) / RFU ARHGAP8 /// PRR5-ARHGAP8 (11727945_x_at) / Fold change /veh ARHGAP8 /// PRR5-ARHGAP8 (11727945_x_at) / RFU KRTAP5-7 /// NADSYN1 (11734609_at) / Fold change /veh KRTAP5-7 /// NADSYN1 (11734609_at) / RFU RASL12 (11751679_a_at) / Fold change /veh RASL12 (11751679_a_at) / RFU CDKN2B (11736163_a_at) / Fold change /veh CDKN2B (11736163_a_at) / RFU PRF1 (11729649_at) / Fold change /veh PRF1 (11729649_at) / RFU, ZNF638 /// ZNF638-IT1 / Fold change vs veh, ZNF638 /// ZNF638-IT1 / RFU, PANK3 / Fold change vs veh, PANK3 / RFU, SH3YL1 / Fold change vs veh, SH3YL1 / RFU, ZEB2 / Fold change vs veh, ZEB2 / RFU, NRIP1 / Fold change vs veh, NRIP1 / RFU, PTTG1IP / Fold change vs veh, PTTG1IP / RFU, CAPN2 / Fold change vs veh, CAPN2 / RFU, MED14 / Fold change vs veh, MED14 / RFU, SNORA58 / Fold change vs veh, SNORA58 / RFU, C1orf63 / Fold change vs veh, C1orf63 / RFU, LRRFIP1 / Fold change vs veh, LRRFIP1 / RFU, NDUFAF7 / Fold change vs veh, NDUFAF7 / RFU, SLC12A2 / Fold change vs veh, SLC12A2 / RFU, IBTK / Fold change vs veh, IBTK / RFU, ESF1 / Fold change vs veh, ESF1 / Fold change vs veh, TMEM50B / RFU, TAOK1 / Fold change vs veh, TAOK1 / RFU, ACBD3 / Fold change vs veh, ACBD3 / RFU, TMA16 / Fold change vs veh, TMA16 / RFU, RWDD3 / Fold change vs veh, RWDD3 / RFU, BCAT1 / Fold change vs veh, BCAT1 / RFU, EDEM3 / Fold change vs veh, EDEM3 / RFU, TMEM33 / Fold change vs veh, TMEM33 / RFU, WDR75 / Fold change vs veh, WDR75 / RFU, AHCTF1 / Fold change vs veh, AHCTF1 / RFU, TFRC / Fold change vs veh, TFRC / RFU, ZDHHC17 / Fold change vs veh, ZDHHC17 / RFU, NOM1 / Fold change vs veh, NOM1 / RFU, ARL8B / Fold change vs veh, ARL8B / RFU, ZBTB11 / Fold change vs veh, ZBTB11 / RFU, TAMM41 / Fold change vs veh, TAMM41 / RFU, KIAA1704 /// LOC100996395 / Fold change vs veh, KIAA1704 /// LOC100996395 / RFU, ING1 / Fold change vs veh, ING1 / RFU, TRMT61B / Fold change vs veh, TRMT61B / RFU, FUBP3 / Fold change vs veh, FUBP3 / RFU, TP53 / Fold change vs veh, TP53 / RFU, TNKS2 / Fold change vs veh, TNKS2 / RFU, ZFP14 / Fold change vs veh, ZFP14 / RFU, ACTR2 / Fold change vs veh, ACTR2 / RFU, PPP3R1 / Fold change vs veh, PPP3R1 / RFU, PIK3R1 / Fold change vs veh, PIK3R1 / RFU, HNRNPA1 / Fold change vs veh, HNRNPA1 / RFU, RNF170 / Fold change vs veh, RNF170 / RFU, ZNF28 / Fold change vs veh, ZNF28 / RFU, RNGTT / Fold change vs veh, RNGTT / RFU, OGT / Fold change vs veh, OGT / RFU, BRD1 / Fold change vs veh, BRD1 / RFU, MARS / Fold change vs veh, MARS / RFU, ZNF655 / Fold change vs veh, ZNF655 / RFU, FAHD1 / Fold change vs veh, FAHD1 / RFU, BDP1 / Fold change vs veh, BDP1 / RFU, LRRCC1 / Fold change vs veh, LRRCC1 / RFU, ARID1A / Fold change vs veh, ARID1A / RFU, ZNF146 / Fold change vs veh, ZNF146 / RFU, ZNF330 / Fold change vs veh, ZNF330 / RFU, GPN3 / Fold change vs veh, GPN3 / RFU, C9orf123 / Fold change vs veh, C9orf123 / RFU, N4BP2L2 / Fold change vs veh, N4BP2L2 / RFU, ARFIP1 / Fold change vs veh, ARFIP1 / RFU, FAM179B / Fold change vs veh, FAM179B / RFU, BCL10 / Fold change vs veh, BCL10 / RFU, UHRF1BP1L / Fold change vs veh, UHRF1BP1L / RFU, BET1 / Fold change vs veh, BET1 / RFU, CNOT2 / Fold change vs veh, CNOT2 / RFU, ZNF268 / Fold change vs veh, ZNF268 / Fold change vs veh, ZNF507 / RFU, DGCR2 / Fold change vs veh, DGCR2 / RFU, WDSUB1 / Fold change vs veh, WDSUB1 / Fold change vs veh, HSP90B1 /// MIR3652 / RFU, ADSS / Fold change vs veh, ADSS / RFU, GK / Fold change vs veh, GK / RFU, ZNF148 / Fold change vs veh, ZNF148 / RFU, TAF9 / Fold change vs veh, TAF9 / RFU, SLC1A5 / Fold change vs veh, SLC1A5 / RFU, SLMO2 / Fold change vs veh, SLMO2 / RFU, ABCC4 / Fold change vs veh, ABCC4 / RFU, LOC101060439 /// RAP1B / Fold change vs veh, LOC101060439 /// RAP1B / RFU, RFX7 / Fold change vs veh, RFX7 / RFU, GTPBP10 / Fold change vs veh, GTPBP10 / RFU, CNEP1R1 / Fold change vs veh, CNEP1R1 / RFU, BIVM-ERCC5 /// ERCC5 / Fold change vs veh, BIVM-ERCC5 /// ERCC5 / RFU, ILF3 / Fold change vs veh, ILF3 / RFU 11762660_at / Fold change /veh 11762660_at / RFU VCAN (11757783_s_at) / Fold change /veh VCAN (11757783_s_at) / RFU DDX43 (11728927_at) / Fold change /veh DDX43 (11728927_at) / RFU KRT8 (11758188_x_at) / Fold change /veh KRT8 (11758188_x_at) / RFU NKD1 (11759106_at) / Fold change /veh NKD1 (11759106_at) / RFU SRD5A1 (11742802_a_at) / Fold change /veh SRD5A1 (11742802_a_at) / RFU TPSAB1 /// TPSB2 (11721975_s_at) / Fold change /veh TPSAB1 /// TPSB2 (11721975_s_at) / RFU GSTM3 (11746129_a_at) / Fold change /veh GSTM3 (11746129_a_at) / RFU IL23R (11737362_x_at) / Fold change /veh IL23R (11737362_x_at) / RFU TMEM51 (11727254_a_at) / Fold change /veh TMEM51 (11727254_a_at) / RFU PIWIL2 (11732686_x_at) / Fold change /veh PIWIL2 (11732686_x_at) / RFU ORM1 (11744905_x_at) / Fold change /veh ORM1 (11744905_x_at) / RFU CCDC152 (11743942_at) / Fold change /veh CCDC152 (11743942_at) / RFU ECM1 (11717891_a_at) / Fold change /veh ECM1 (11717891_a_at) / RFU IL23R (11748794_a_at) / Fold change /veh IL23R (11748794_a_at) / RFU TNFAIP8L3 (11732012_x_at) / Fold change /veh TNFAIP8L3 (11732012_x_at) / RFU MBOAT4 (11741988_at) / Fold change /veh MBOAT4 (11741988_at) / RFU 11764193_at / Fold change /veh 11764193_at / RFU TMEM53 (11763286_at) / Fold change /veh TMEM53 (11763286_at) / RFU MAGEB2 (11727129_at) / Fold change /veh MAGEB2 (11727129_at) / RFU TMEM200A (11744735_a_at) / Fold change /veh TMEM200A (11744735_a_at) / RFU CCDC152 (11751479_a_at) / Fold change /veh CCDC152 (11751479_a_at) / RFU FAM211A (11726209_a_at) / Fold change /veh FAM211A (11726209_a_at) / RFU RGS16 (11746705_a_at) / Fold change /veh RGS16 (11746705_a_at) / RFU VCAN (11755009_s_at) / Fold change /veh VCAN (11755009_s_at) / RFU RHOB (11743442_s_at) / Fold change /veh RHOB (11743442_s_at) / RFU RGS16 (11720943_a_at) / Fold change /veh RGS16 (11720943_a_at) / RFU RGS16 (11720944_at) / Fold change /veh RGS16 (11720944_at) / RFU, VPS4B / Fold change vs veh, VPS4B / RFU, CREB1 / Fold change vs veh, CREB1 / RFU, DNAJC13 / Fold change vs veh, DNAJC13 / RFU, GNAQ / Fold change vs veh, GNAQ / RFU, CDK5R1 / Fold change vs veh, CDK5R1 / RFU, ZRANB3 / Fold change vs veh, ZRANB3 / RFU, CUL4A / Fold change vs veh, CUL4A / RFU, CCNY / Fold change vs veh, CCNY / RFU, UFL1 / Fold change vs veh, UFL1 / RFU, COG3 / Fold change vs veh, COG3 / RFU, DIAPH2 / Fold change vs veh, DIAPH2 / RFU, SKA2 / Fold change vs veh, SKA2 / RFU, AFF3 / Fold change vs veh, AFF3 / RFU, LMF1 / Fold change vs veh, LMF1 / RFU, IPO11 / Fold change vs veh, IPO11 / RFU, DFFB / Fold change vs veh, DFFB / RFU, FOXP1 / Fold change vs veh, FOXP1 / RFU, CARD8 / Fold change vs veh, CARD8 / RFU, STRN3 / Fold change vs veh, STRN3 / RFU, ADK / Fold change vs veh, ADK / RFU, RASSF2 / Fold change vs veh, RASSF2 / RFU, WIPF1 / Fold change vs veh, WIPF1 / RFU, LARP1B / Fold change vs veh, LARP1B / RFU, RASA1 / Fold change vs veh, RASA1 / RFU, RB1 / Fold change vs veh, RB1 / RFU, PPFIA1 / Fold change vs veh, PPFIA1 / RFU, MAT2A / Fold change vs veh, MAT2A / RFU, CCT5 / Fold change vs veh, CCT5 / RFU, WDR92 / Fold change vs veh, WDR92 / RFU, CUX1 / Fold change vs veh, CUX1 / RFU, TTC7A / Fold change vs veh, TTC7A / RFU, TMEM135 / Fold change vs veh, TMEM135 / RFU, DEPTOR / Fold change vs veh, DEPTOR / RFU, CPM / Fold change vs veh, CPM / RFU, DNAJB6 / Fold change vs veh, DNAJB6 / RFU, CACNA2D3 / Fold change vs veh, CACNA2D3 / RFU, DTX4 / Fold change vs veh, DTX4 / RFU, TFCP2 / Fold change vs veh, TFCP2 / RFU, GMCL1 /// GMCL1P1 / Fold change vs veh, GMCL1 /// GMCL1P1 / RFU, AEBP2 / Fold change vs veh, AEBP2 / RFU, SNHG1 /// SNORD22 /// SNORD25 /// SNORD26 /// SNORD27 /// SNORD28 /// SNORD29 /// SNORD31 / Fold change vs veh, SNHG1 /// SNORD22 /// SNORD25 /// SNORD26 /// SNORD27 /// SNORD28 /// SNORD29 /// SNORD31 / Fold change (Aza/veh), C12orf56 (ProbeSet 11735607_a_at) / Fold change (ACY-1035/veh), C12orf56 (ProbeSet 11735607_a_at) / Fold change (Aza/veh), FGFR1OP (ProbeSet 11751329_s_at) / Fold change (ACY-1035/veh), FGFR1OP (ProbeSet 11751329_s_at) / Fold change (Aza/veh), VPS36 (ProbeSet 11739960_a_at) / Fold change (ACY-1035/veh), VPS36 (ProbeSet 11739960_a_at) / RFU SYPL1 (11715823_x_at) / Fold change /veh SYPL1 (11715823_x_at) / RFU IGFBP7 (11715501_s_at) / Fold change /veh IGFBP7 (11715501_s_at) / RFU REEP3 (11722064_at) / Fold change /veh REEP3 (11722064_at) / RFU IGLL1 (11728026_x_at) / Fold change /veh IGLL1 (11728026_x_at): dose or concentration left out as unconfirmed
Conditions: ProbeSet 11750457_a_at; LIST B

## Nc1ncn([C@@H]2O[C@H](CO)[C@@H](O)[C@H]2O)c(=O)n1 [azacitidine]
  Fold change vs veh, GTPBP10: 0.84
